Laboratory results reported in patent US10485550B2, “Ophthalmic drug delivery device and methods of use” (priority 2012, dated 2019).
Where “and” joins values, the source holds several entries; their conditions need not be identical. Identical values can stand only once.

System: mouse eye
Assay: Intraocular pressure (TonoLab) in mice after injection of ethacrynic acid, with or without healon, into the episcleral vein
Type: in vivo
Procedure: Basline intraocular pressures were measured in both eyes of the mouse using a TonoLab device. A piece of a latex glove was placed over the equator of the mouse eye. Initially, a glass microcannula was used to inject either (a) a solution of ethacrynic acid alone or (b) saline into the episcleral vein at the limbus of the right eye of each mouse. The solution or saline was injected until blanching was observed 360 degrees around the limbus. The piece of latex was then removed from the eye. Intraocular pressures were then measured daily and then weekly in both eyes of all mice. The ethacrynic acid injection alone produced its most profound effect at day 2; however, some effect was maintained until day 7. The results of the above protocol are provided in Table 1, and also shown in FIG. 4, where ethacrynic acid is noted as ECA (squares), saline control is BSS (triangles), and non-treated control is control (diamonds).
Next, ethacrynic acid was combined with healon in a 3:1 ratio. Again, a glass microcannula was used to inject either the ethacrynic acid/healon solution or BSS solution as the control. The ethacrynic acid/healon solution produced its most profound effect at 2 weeks but lasted 3 weeks. The results are provided in Table 2 and also shown in FIG. 3, where ethacrynic acid/healon is designated with squares, BSS as diamonds, and non injected controls as triangles.

[1] = ethacrynic acid injection alone, episcleral vein, mouse

C=C(CC)C(=O)c1ccc(OCC(=O)O)c(Cl)c1Cl [ECA, [2,3-dichloro-4-(2-methylene-1-oxobutyl)phenoxy]acetic acid]
Reduction of intraocular pressure (IOP) versus control (FIG. 5): reduces intraocular pressure (IOP) greater than control | Animal status (mouse ECA6) (Table 1, ethacrynic acid alone, 1 wk): dead | Intraocular pressure, OD, individual mouse (Table 2, ethacrynic acid combined with healon 3:1, episcleral vein injection, 1 day): 14 and 13 (2×) and 9 (2×) | Avg. intraocular pressure, OD (Table 2, ethacrynic acid combined with healon 3:1, episcleral vein injection, 1 day, group avg (0 hr base avg 16.6)): 12.25 | Intraocular pressure, OD, individual mouse (Table 2, ethacrynic acid combined with healon 3:1, episcleral vein injection, 2 day): 12 (2×) and 19 (2×) and 22 and 16 | Avg. intraocular pressure, OD (Table 2, ethacrynic acid combined with healon 3:1, episcleral vein injection, 2 day, group avg): 16.8 | Intraocular pressure, OD, individual mouse (Table 2, ethacrynic acid combined with healon 3:1, episcleral vein injection, 5 day): 13 and 8 and 17 and 14 and 16 and 10 | Avg. intraocular pressure, OD (Table 2, ethacrynic acid combined with healon 3:1, episcleral vein injection, 5 day, group avg): 13.6 | Intraocular pressure, OD, individual mouse (Table 2, ethacrynic acid combined with healon 3:1, episcleral vein injection, 7 day): 10 (3×) and 9 and 7 and 20 | Avg. intraocular pressure, OD (Table 2, ethacrynic acid combined with healon 3:1, episcleral vein injection, 7 day, group avg): 11.2 | Intraocular pressure, OD, individual mouse (Table 2, ethacrynic acid combined with healon 3:1, episcleral vein injection, 14 day): 16 and 12 and 14 and 18 (2×) | Avg. intraocular pressure, OD (Table 2, ethacrynic acid combined with healon 3:1, episcleral vein injection, 14 day, group avg): 15 | Intraocular pressure, OD, individual mouse (Table 2, ethacrynic acid combined with healon 3:1, episcleral vein injection, 21 day): 16 and 7 and 14 (2×) and 8 | Avg. intraocular pressure, OD (Table 2, ethacrynic acid combined with healon 3:1, episcleral vein injection, 21 day, group avg): 12.75 | Intraocular pressure, OD, individual mouse (Table 2, ethacrynic acid combined with healon 3:1, episcleral vein injection, 35 day): 11 and 8 and 15 and 17 and 14 | Avg. intraocular pressure, OD (Table 2, ethacrynic acid combined with healon 3:1, episcleral vein injection, 35 day, group avg): 12.75 | Intraocular pressure, OD, individual mouse (Table 2, ethacrynic acid combined with healon 3:1, episcleral vein injection, 42 day): 15 and 12 (2×) and 8 and 11 | Avg. intraocular pressure, OD (Table 2, ethacrynic acid combined with healon 3:1, episcleral vein injection, 42 day, group avg): 14.11 | Intraocular pressure, OD, individual mouse (Table 2, ethacrynic acid combined with healon 3:1, episcleral vein injection, 56 day): 13 and 10 (2×) and 7 and 17 | Avg. intraocular pressure, OD (Table 2, ethacrynic acid combined with healon 3:1, episcleral vein injection, 56 day, group avg): 13.47 | Intraocular pressure, OD, individual mouse (Table 2, ethacrynic acid combined with healon 3:1, episcleral vein injection, 64 day): 16 and 12 and 9 and 15 and 14 | Avg. intraocular pressure, OD (Table 2, ethacrynic acid combined with healon 3:1, episcleral vein injection, 64 day, group avg): 13.83 | Intraocular pressure, OD, individual mouse (Table 2, ethacrynic acid combined with healon 3:1, episcleral vein injection, 74 day (first 74 day column pair)): 19 and 14 and 17 and 18 | Avg. intraocular pressure, OD (Table 2, ethacrynic acid combined with healon 3:1, episcleral vein injection, 74 day (first 74 day column pair), group avg): 17 | Intraocular pressure, OD, individual mouse (Table 2, ethacrynic acid combined with healon 3:1, episcleral vein injection, 74 day (second 74 day column pair)): 17 and 11 and 16 (2×) | Avg. intraocular pressure, OD (Table 2, ethacrynic acid combined with healon 3:1, episcleral vein injection, 74 day (second 74 day column pair), group avg): 19 | Animal status (mouse ECA6) (Table 2, 14 day): dead | Intraocular pressure, OD, individual mouse (ethacrynic acid alone, episcleral vein injection right eye, 1 wk): 16 and 12 and 14 and 18 | Avg. intraocular pressure, OD (ethacrynic acid alone, episcleral vein injection right eye, 1 wk, group avg (0 hr base avg 16.6)): 15 | Intraocular pressure, OD, individual mouse (ethacrynic acid alone, episcleral vein injection right eye, 1 day): 14 and 13 (2×) and 9 | Avg. intraocular pressure, OD (ethacrynic acid alone, episcleral vein injection right eye, 1 day, group avg (0 hr base avg 16.6)): 12.25 | Intraocular pressure, OD, individual mouse (ethacrynic acid alone, episcleral vein injection right eye, 2 day): 12 (2×) and 19 (2×) and 22 | Avg. intraocular pressure, OD (ethacrynic acid alone, episcleral vein injection right eye, 2 day, group avg (0 hr base avg 16.6)): 16.8 | Intraocular pressure, OD, individual mouse (ethacrynic acid alone, episcleral vein injection right eye, 5 day): 13 and 8 and 17 and 14 and 16 | Avg. intraocular pressure, OD (ethacrynic acid alone, episcleral vein injection right eye, 5 day, group avg (0 hr base avg 16.6)): 13.6 | Intraocular pressure, OD, individual mouse (ethacrynic acid alone, episcleral vein injection right eye, 6 day): 10 (2×) and 9 and 7 and 20 | Avg. intraocular pressure, OD (ethacrynic acid alone, episcleral vein injection right eye, 6 day, group avg (0 hr base avg 16.6)): 11.2 | Effect on intraocular pressure maintained until [1]: 7 days | Time of most profound effect on intraocular pressure [1]: 2 days
